Assay results reported in patent US12303592B2, “Formulations for parenteral delivery of compounds and uses thereof” (Wyeth, LLC, priority 2006, dated 2025).

Tests used:
[1] = Effect of 1 mM sodium tungstate on subcutaneous formulation (Table 16), HPLC Method A; assay type: physicochemical; on Ring Contraction Degradant: key: BRL=below recordable limit
[2] = Buffer compatibility: stability of MNTX in pH 7 phosphate or glycine solution (Tables 9, 10), HPLC Method A; assay type: physicochemical
Source text: Evaluation of phosphate buffers solution stability. We have also assessed different buffers to determine compatibility and whether various conditions would convey further stability to methylnaltrexone solutions. Table 9 and Table 10 show results (HPLC Method A) of total degradant formation over time in methylnaltrexone solutions prepared in phosphate solution (Table 9), and glycine solution (Table 10). We found at pH 7, glycine provides better stability characteristics to samples than phosphate.

C[N+]1(CC2CC2)CC[C@]23c4c5ccc(O)c4O[C@H]2C(=O)CC[C@@]3(O)[C@H]1C5 (stereo partly drawn) [MNTX, methylnaltrexone bromide]
7-Dihydroxy MNTX ([1]; 40° C., 1 hour): BRL | O-Methyl MNTX ([1]; 40° C., 1 hour): 0.12 | Ring Contraction Degradant ([1]; 40° C., 1 hour): BRL | Total ([1]; 40° C., 1 hour): 0.12 | 7-Dihydroxy MNTX ([1]; 40° C., 2 hours): 0.02 | O-Methyl MNTX ([1]; 40° C., 2 hours): 0.12 | Ring Contraction Degradant ([1]; 40° C., 2 hours): BRL | Total ([1]; 40° C., 2 hours): 0.14 | 7-Dihydroxy MNTX ([1]; 40° C., 3 hours): 0.02 | O-Methyl MNTX ([1]; 40° C., 3 hours): 0.12 | Ring Contraction Degradant ([1]; 40° C., 3 hours): BRL | Total ([1]; 40° C., 3 hours): 0.14 | 7-Dihydroxy MNTX ([1]; 40° C., 4 hours): 0.02 | O-Methyl MNTX ([1]; 40° C., 4 hours): 0.12 | Ring Contraction Degradant ([1]; 40° C., 4 hours): BRL | Total ([1]; 40° C., 4 hours): 0.14 | 7-Dihydroxy MNTX ([1]; 40° C., 5 hours): 0.03 | O-Methyl MNTX ([1]; 40° C., 5 hours): 0.12 | Ring Contraction Degradant ([1]; 40° C., 5 hours): BRL | Total ([1]; 40° C., 5 hours): 0.15 | 7-Dihydroxy MNTX ([1]; 40° C., Initial): BRL | O-Methyl MNTX ([1]; 40° C., Initial): 0.12 | Ring Contraction Degradant ([1]; 40° C., Initial): BRL | Total ([1]; 40° C., Initial): 0.12 | 7-Dihydroxy MNTX ([1]; Room Temperature, 1 hour): BRL | O-Methyl MNTX ([1]; Room Temperature, 1 hour): 0.12 | Ring Contraction Degradant ([1]; Room Temperature, 1 hour): BRL | Total ([1]; Room Temperature, 1 hour): 0.12 | 7-Dihydroxy MNTX ([1]; Room Temperature, 2 hours): 0.02 | O-Methyl MNTX ([1]; Room Temperature, 2 hours): 0.12 | Ring Contraction Degradant ([1]; Room Temperature, 2 hours): BRL | Total ([1]; Room Temperature, 2 hours): 0.14 | 7-Dihydroxy MNTX ([1]; Room Temperature, 3 hours): 0.02 | O-Methyl MNTX ([1]; Room Temperature, 3 hours): 0.12 | Ring Contraction Degradant ([1]; Room Temperature, 3 hours): BRL | Total ([1]; Room Temperature, 3 hours): 0.14 | 7-Dihydroxy MNTX ([1]; Room Temperature, 4 hours): 0.02 | O-Methyl MNTX ([1]; Room Temperature, 4 hours): 0.12 | Ring Contraction Degradant ([1]; Room Temperature, 4 hours): BRL | Total ([1]; Room Temperature, 4 hours): 0.14 | 7-Dihydroxy MNTX ([1]; Room Temperature, 5 hours): 0.02 | O-Methyl MNTX ([1]; Room Temperature, 5 hours): 0.12 | Ring Contraction Degradant ([1]; Room Temperature, 5 hours): BRL | Total ([1]; Room Temperature, 5 hours): 0.14 | 7-Dihydroxy MNTX ([1]; Room Temperature, Initial): BRL | O-Methyl MNTX ([1]; Room Temperature, Initial): 0.12 | Ring Contraction Degradant ([1]; Room Temperature, Initial): BRL | Total ([1]; Room Temperature, Initial): 0.12 | Appearance and Description ([2]; pH 7, 0.02M Glycine Solution, 40° C., r24 0 time, r26 1 day, r28 2 days, r30 6 days, r32 9 days, r34 14 days, r36 21 days): Clear, colorless | Appearance and Description ([2]; pH 7, 0.02M Glycine Solution, Room Temperature, r8 0 time, r11 1 day, r13 2 days, r15 6 days, r18 9 days, r20 14 days, r22 21 days): Clear, colorless | Appearance and Description ([2]; pH 7, 0.02M Phosphate Solution, 40° C., r22 0 time, r24 1 day, r26 2 days, r28 6 days, r30 9 days, r32 14 days, r35 21 days, elapsed 0 time): Clear, colorless | Appearance and Description ([2]; pH 7, 0.02M Phosphate Solution, 60° C., r38 0 time, r40 1 day, r42 2 days, r44 6 days, r46 9 days, r48 14 days, r50 21 days, elapsed 0 time): Clear, colorless | Appearance and Description ([2]; pH 7, 0.02M Phosphate Solution, 60° C., r38 0 time, r40 1 day, r42 2 days, r44 6 days, r46 9 days, r48 14 days, r50 21 days, elapsed 9 days): Clear, yellow | Appearance and Description ([2]; pH 7, 0.02M Phosphate Solution, Room Temperature, r8 0 time, r10 1 day, r12 2 days, r14 6 days, r16 9 days, r18 14 days, r20 21 days): Clear, colorless
